# What was measured:
# [1] = tested on: KPC FC1242 cells injected in the pancreas; assay: Orthotopic syngeneic mice model of pancreatic cancer: tumour growth; format: in vivo, C57BL/6J mice
# Method: FIG. 2. Schematic representation of an orthotopic syngeneic mice model established for the determination of obestatin action on tumoral development. In brief, KPC FC1242 (1×10E6) cells were injected in the pancreas of C57BL/6J mice. After nine days of tumoral growing, the mice were randomly assigned to the different groups (n=4/group) and treated with vehicle [NaCl, 0.9% (w/v)] or obestatin (500 nmol/Kg/72 h) via ALZET® osmotic micropumps for five days. Mice without tumoral cells treatment were utilized as healthy controls.
# FIG. 3. Effect of obestatin treatment on tumoral growing. The KPC FC1242 cells (1×10E6) were injected into the pancreas of C57BL/6J mice. After nine days of tumour post-injection, mice were treated with vehicle [NaCl, 0.9% (w/v)] or obestatin (500 nmol/Kg/72 h) via ALZET® osmotic micropumps for five days. Mice without tumoral cells treatment were utilized as healthy controls (n=4). Pancreases/tumours were collected, measured and weighted at day 14 after tumour implantation. Results are expressed as mean mean±SE (*, #, P<0.05). […]
# Day 1: Implantation of KPC FC1242 Cells into Mouse Pancreas • 1. […] The cells were kept cold, on ice, until ready to inject. • 2. […] The mouse was monitored until no longer mobile and breathing has slowed. […] Then, the mouse was ready for hair removal. • 3. […]
# [2] = tested on: RWP1 cells; assay: Proliferation assay, cell counting under chronic obestatin treatment; format: cell-based, human
# Method: (§1) PANC1 cell line was obtained from ECACC (87092802; ECACC, Wiltshire, UK). RWP1 and BxPC3 human pancreatic cancer cell lines were kindly provided by FX Real (Epithelial Carcinogenesis Group, Cancer Cell Biology Programme, Spanish National Cancer Research Centre-CNIO, Madrid, ES). In brief, PANC1 cells were cultured in DMEM (supplemented with 4.5 g/L glucose, 10% FBS, and 1% penicillin/streptomycin), RWP1 and BxPC3 cell lines were maintained in RPMI (supplemented with 10% FBS and 1% penicillin/streptomycin) and incubated in an atmosphere containing 5% CO2 at 37° C. These cells were periodically tested and resulted negative for mycoplasma contamination.
# (§2) For the analysis of proliferation the cells were seeded on 12-well plates at an amount of 50,000 cells per well and maintained for 24 h in culture media (see above) to allow attachment. The medium was completely removed and replaced with serum-free media for additional 24 h. Then, cells were treated or not with different doses of obestatin: mouse obestatin (corresponding to SEQ ID NO: 4) for KPC FC1242 and human obestatin (corresponding to SEQ ID NO: 1) for PANC1, RWP1 and BxPC3. The following treatments were used: 0% FBS as negative control, 10% FBS as positive control, 100 nM obestatin, 200 nM obestatin, 100 nM obestatin+10% FBS, and 200 nM obestatin+10% FBS. These treatments were administered every 24 h for three days. Twenty-four h after the last treatment, the cells were trypsinized and manually counted with a Neubauer camera.
# (§3) The total cells were calculated using the following equations counting 10 squares: […]
# (§4) In all cases, each experiment point was replicated eight times.
# [3] = tested on: BxPC3 cells; assay: as above; format: cell-based, human
# Method: as §1, §2, §3, §4
# [4] = tested on: PANC1 cells; assay: as above; format: cell-based, human
# Method: as §1, §2, §3, §4
# [5] = 100 nM obestatin+10% FBS each 24 h for 72 h
# [6] = human obestatin (SEQ ID NO: 1) 100 nM each 24 h for 72 h, serum-free
substance,measurement,setting,value
obestatin,reduction in the pancreatic tumour growing in weight,"[1]; mouse obestatin 500 nmol/Kg/72 h via osmotic micropumps for five days, from day 9 after tumour injection",35.8±6.9%
same,size and weight of tumours vs control or vehicle-treated groups,"[1]; obestatin-treated group, 500 nmol/Kg/72 h",significantly smaller
same,effect on FBS-mediated proliferation,[2]; [5],significant inhibitory effect
same,proliferation (number of cells),[2]; [6],does not activate the proliferation
same,effect on FBS-mediated proliferation,[3]; [5],significant inhibitory effect
same,proliferation (number of cells),[3]; [6],does not activate the proliferation
same,effect on FBS-mediated proliferation,[4]; [5],significant inhibitory effect
same,proliferation (number of cells),[4]; [6],does not activate the proliferation

# — patent publication US20260273020A1, “OBESTATIN FOR USE AS ANTINEOPLASTIC AGENT IN THE TREATMENT OF PANCREATIC CANCER” (SERVIZO GALEGO DE SAÚDE, priority 2023, published 2026)
